Biological target: human σ1 receptor and human μ-opioid receptor
Test: Human σ1 receptor radioligand assay and human μ-opioid receptor radioligand assay (μ and σ1 dual binding)
Design: key to μ and σ1 dual binding: +: Both Ki-μ and Ki-σ1>=500 nM; ++: One K, <500 nM while the other K, is >=500 nM; +++: Both Ki-μ and Ki-σ1<500 nM; ++++: Both Ki-μ and Ki-σ1<100 nM
Details: one class for both Ki: σ1 ([3H](+)-pentazocine, transfected HEK-293 membranes) and μ-opioid ([3H]-DAMGO, transfected CHO-K1 membranes)
Procedure: Human σ1 Receptor Radioligand Assay
To investigate binding properties of σ1 receptor ligands to human σ1 receptor, transfected HEK-293 membranes and [^3H](+)-pentazocine (Perkin Elmer, NET-1056), as the radioligand, were used. The assay was carried out with 7 μg of membrane suspension, 5 nM of [^3H](+)-pentazocine in either absence or presence of either buffer or 10 μM Haloperidol for total and non-specific binding, respectively. Binding buffer contained Tris-HCl 50 mM at pH 8. Plates were incubated at 37° C. for 120 minutes. After the incubation period, the reaction mix was then transferred to MultiScreen HTS, FC plates (Millipore), filtered and plates were washed 3 times with ice-cold 10 mM Tris-HCL (pH7.4). Filters were dried and counted at approximately 40% efficiency in a MicroBeta scintillation counter (Perkin-Elmer) using EcoScint liquid scintillation cocktail
Human μ-Opioid Receptor Radioligand Assay
To investigate binding properties of p-opioid receptor ligands to human p-opioid receptor, transfected CHO-K1 cell membranes and [^3H]-DAMGO (Perkin Elmer, ES-542-C), as the radioligand, were used. The assay was carried out with 20 μg of membrane suspension, 1 nM of [^3H]-DAMGO in either absence or presence of either buffer or 10 μM Naloxone for total and non-specific binding, respectively. Binding buffer contained Tris-HCl 50 mM, MgCl2 5 mM at pH 7.4. Plates were incubated at 27° C. for 60 minutes. After the incubation period, the reaction mix was then transferred to MultiScreen HTS, FC plates (Millipore), filtered and plates were washed 3 times with ice-cold 10 mM Tris-HCL (pH 7.4). Filters were dried and counted at approximately 40% efficiency in a MicroBeta scintillation counter (Perkin-Elmer) using
EcoScint liquid scintillation cocktail.
The following scale as been adopted for representing the binding to the σ1 receptor and the μ-opiod receptor expressed as Ki: • + Both Ki-μ and Ki-σ1>=500 nM • ++ One K, <500 nM while the other K, is >=500 nM • +++ Both Ki-μ and Ki-σ1<500 nM • ++++ Both Ki-μ and Ki-σ1<100 nM

Structure (SMILES)	Ki [nM]	μ and σ1 dual binding
CC(C)S(=O)(=O)Nc1cccc(N2CCN(Cc3cn(-c4cccc(F)c4)nn3)CC2)c1 [Example 27, N-(3-(4-((1-(3-fluorophenyl)-1H-1,2,3-triazol-4-yl)methyl)piperazin-1-yl)phenyl)propane-2-sulfonamide]	< 100	
CC(C)S(=O)(=O)Nc1cccc(N2CCN(Cc3cnn(-c4ccccn4)n3)CC2)c1 [Example 24, N-(3-(4-((2-(pyridin-2-yl)-2H-1,2,3-triazol-4-yl)methyl)piperazin-1-yl)phenyl)propane-2-sulfonamide]	≥ 500	
O=S(=O)(Nc1cccc(N2CCN(Cc3cn(-c4ccccn4)cn3)CC2)n1)C1CC1 [Example 73, N-(6-(4-((1-(pyridin-2-yl)-1H-imidazol-4-yl)methyl)piperazin-1-yl)pyridin-2-yl)cyclopropanesulfonamide]	< 500	
O=S(=O)(Nc1cccc(N2CCN(Cc3cn(-c4ccccc4F)cn3)CC2)n1)C1CC1 [Example 71, N-(6-(4-((1-(2-fluorophenyl)-1H-imidazol-4-yl)methyl)piperazin-1-yl)pyridin-2-yl)cyclopropanesulfonamide]	< 500	
O=S(=O)(Nc1cccc(N2CCN(Cc3cn(-c4ccccc4)nn3)CC2)n1)C1CC1 [Example 51, N-(6-(4-((1-phenyl-1H-1,2,3-triazol-4-yl)methyl)piperazin-1-yl)pyridin-2-yl)cyclopropanesulfonamide]	< 500	
CC(C)S(=O)(=O)Nc1cccc(N2CC3CN(Cc4cn(-c5ccccc5)nn4)CC3C2)c1 (stereo not shown) [Example 30, N-(3-(5-((1-phenyl-1H-1,2,3-triazol-4-yl)methyl)hexahydropyrrolo[3,4-c]pyrrol-2(1H)-yl)phenyl)propane-2-sulfonamide]	< 100	
CC(C)S(=O)(=O)Nc1cccc(N2CCN(Cc3cn(-c4ccccn4)nn3)CC2)c1 [Example 17, N-(3-(4-((1-(pyridin-2-yl)-1H-1,2,3-triazol-4-yl)methyl)piperazin-1-yl)phenyl)propane-2-sulfonamide]	< 500	
CC(C)S(=O)(=O)Nc1cccc(N2CCN(Cc3cn(-c4ccc(Cl)cc4F)nn3)CC2)n1 [Example 50, N-(6-(4-((1-(4-chloro-2-fluorophenyl)-1H-1,2,3-triazol-4-yl)methyl)piperazin-1-yl)pyridin-2-yl)propane-2-sulfonamide]		++
CC(C)S(=O)(=O)Nc1cccc(N2CCN(Cc3cnn(-c4ccccn4)c3)CC2)c1 [Example 39, N-(3-(4-((1-(pyridin-2-yl)-1H-pyrazol-4-yl)methyl)piperazin-1-yl)phenyl)propane-2-sulfonamide]	< 100	
Oc1cccc(N2CCN(Cc3cn(-c4ccccn4)nn3)CC2)c1 [Example 7, 3-(4-((1-(pyridin-2-yl)-1H-1,2,3-triazol-4-yl)methyl)piperazin-1-yl)phenol]		++
O=S(=O)(Nc1cccc(N2CCN(Cc3cn(-c4ccc(C(F)(F)F)cc4)nn3)CC2)n1)C1CC1 [Example 68, N-(6-(4-((1-(4-(trifluoromethyl)phenyl)-1H-1,2,3-triazol-4-yl)methyl)piperazin-1-yl)pyridin-2-yl)cyclopropanesulfonamide]		++
CC(C)S(=O)(=O)Nc1cccc(N2CCN(Cc3cn(-c4ccccc4)nn3)CC2)n1 [Example 42, N-(6-(4-((1-phenyl-1H-1,2,3-triazol-4-yl)methyl)piperazin-1-yl)pyridin-2-yl)propane-2-sulfonamide]	< 500	
CS(=O)(=O)Nc1cccc(N2CCN(Cc3cnn(-c4ccccn4)c3)CC2)c1 [Example 38, N-(3-(4-((1-(pyridin-2-yl)-1H-pyrazol-4-yl)methyl)piperazin-1-yl)phenyl)methanesulfonamide]	< 500	
O=S(=O)(Nc1cccc(N2CCN(Cc3cn(-c4cc(F)ccc4F)nn3)CC2)n1)C1CC1 [Example 65, N-(6-(4-((1-(2,5-difluorophenyl)-1H-1,2,3-triazol-4-yl)methyl)piperazin-1-yl)pyridin-2-yl)cyclopropanesulfonamide]		++
CC(C)(C)NS(=O)(=O)c1cccc(N2CCN(Cc3cn(-c4ccccc4)nn3)CC2)c1 [Example 32, N-tert-butyl-3-(4-((1-phenyl-1H-1,2,3-triazol-4-yl)methyl)piperazin-1-yl)benzenesulfonamide]		++
CC(C)S(=O)(=O)Nc1cccc(N2CCN(Cc3cn(-c4ccccc4)nn3)CC2)c1 [Example 1, N-(3-(4-((1-phenyl-1H-1,2,3-triazol-4-yl)methyl)piperazin-1-yl)phenyl)propane-2-sulfonamide]	< 100	
O=S(=O)(Nc1cccc(N2CCN(Cc3cn(-c4ccc(C(F)(F)F)cc4F)nn3)CC2)n1)C1CC1 [Example 69, N-(6-(4-((1-(2-fluoro-4-(trifluoromethyl)phenyl)-1H-1,2,3-triazol-4-yl)methyl)piperazin-1-yl)pyridin-2-yl)cyclopropanesulfonamide]		++
CCS(=O)(=O)Nc1cccc(N2CCN(Cc3cn(-c4ccccc4)nn3)CC2)c1 [Example 10, N-(3-(4-((1-phenyl-1H-1,2,3-triazol-4-yl)methyl)piperazin-1-yl)phenyl)ethanesulfonamide]	< 500	
CS(=O)(=O)Nc1cccc(N2CCN(Cc3cnn(Cc4ccccn4)c3)CC2)c1 [Example 35, N-(3-(4-((1-(pyridin-2-ylmethyl)-1H-pyrazol-4-yl)methyl)piperazin-1-yl)phenyl)methanesulfonamide]		++
CS(=O)(=O)Nc1cccc(N2[C@@H]3CC[C@H]2CN(Cc2cn(-c4ccccc4)nn2)C3)c1 [Example 23, N-(3-((1R,5S)-3-((1-phenyl-1H-1,2,3-triazol-4-yl)methyl)-3,8-diazabicyclo[3.2.1]octan-8-yl)phenyl)methanesulfonamide]		++
CC(C)S(=O)(=O)Nc1cccc(N2CCN(Cc3cn(-c4cc(F)ccn4)nn3)CC2)c1 [Example 22, N-(3-(4-((1-(4-fluoropyridin-2-yl)-1H-1,2,3-triazol-4-yl)methyl)piperazin-1-yl)phenyl)propane-2-sulfonamide]		++
CS(=O)(=O)Nc1cccc(N2CCCN(Cc3cn(-c4ccccc4)nn3)CC2)c1 [Example 25, N-(3-(4-((1-phenyl-1H-1,2,3-triazol-4-yl)methyl)-1,4-diazepan-1-yl)phenyl)methanesulfonamide]	< 500	
CC(C)S(=O)(=O)Nc1cccc(N2CCN(Cc3cn(Cc4ccccn4)nn3)CC2)c1 [Example 16, N-(3-(4-((1-(pyridin-2-ylmethyl)-1H-1,2,3-triazol-4-yl)methyl)piperazin-1-yl)phenyl)propane-2-sulfonamide]		++
CC(C)S(=O)(=O)Nc1cccc(N2CCN(Cc3cn(-c4ccccc4O)nn3)CC2)n1 [Example 46, N-(6-(4-((1-(2-hydroxyphenyl)-1H-1,2,3-triazol-4-yl)methyl)piperazin-1-yl)pyridin-2-yl)propane-2-sulfonamide]		++
CS(=O)(=O)Nc1cccc(N2CCN(Cc3cn(Cc4ccccc4)nn3)CC2)c1 [Example 3, N-(3-(4-((1-benzyl-1H-1,2,3-triazol-4-yl)methyl)piperazin-1-yl)phenyl)methanesulfonamide]		++

Reference: US10745361B2, “Piperazine derivatives having multimodal activity against pain” (ESTEVE PHARMACEUTICALS, S.A., priority 2013, dated 2020)
